From paper PMC8800111 (The Journal of Biological Chemistry, 2021)

Key:
Format in all cases: cell-based
[1] = target: proteins of U3A human fibrosarcoma cells (4462 proteins detected) (Homo sapiens, UniProt Q9H0A8); conditions: protein COMMD4; U3A cells
[2] = target: proteins of U3A human fibrosarcoma cells (4462 proteins detected) (Homo sapiens, UniProt Q9Y2P8); conditions: protein RCL1; U3A cells
[3] = target: proteins of U3A human fibrosarcoma cells (4462 proteins detected) (Homo sapiens, UniProt P01040); conditions: protein CSTA, U3A cells
proteins of U3A human fibrosarcoma cells (4462 proteins detected) (Homo sapiens, UniProt P01040), sequence (P01040 whole entry): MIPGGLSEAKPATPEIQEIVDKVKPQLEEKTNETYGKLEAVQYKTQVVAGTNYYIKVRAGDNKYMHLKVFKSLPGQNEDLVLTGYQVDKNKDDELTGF

[4] = target: proteins of U3A human fibrosarcoma cells (4462 proteins detected) (Homo sapiens, UniProt P62487); conditions: protein POLR2G; U3A cells
[5] = target: proteins of U3A human fibrosarcoma cells (4462 proteins detected) (Homo sapiens, UniProt Q7Z5L2); conditions: protein R3HCC1L; U3A, 10 μM, 2 h
proteins of U3A human fibrosarcoma cells (4462 proteins detected) (Homo sapiens, UniProt Q7Z5L2), sequence (Q7Z5L2 whole entry): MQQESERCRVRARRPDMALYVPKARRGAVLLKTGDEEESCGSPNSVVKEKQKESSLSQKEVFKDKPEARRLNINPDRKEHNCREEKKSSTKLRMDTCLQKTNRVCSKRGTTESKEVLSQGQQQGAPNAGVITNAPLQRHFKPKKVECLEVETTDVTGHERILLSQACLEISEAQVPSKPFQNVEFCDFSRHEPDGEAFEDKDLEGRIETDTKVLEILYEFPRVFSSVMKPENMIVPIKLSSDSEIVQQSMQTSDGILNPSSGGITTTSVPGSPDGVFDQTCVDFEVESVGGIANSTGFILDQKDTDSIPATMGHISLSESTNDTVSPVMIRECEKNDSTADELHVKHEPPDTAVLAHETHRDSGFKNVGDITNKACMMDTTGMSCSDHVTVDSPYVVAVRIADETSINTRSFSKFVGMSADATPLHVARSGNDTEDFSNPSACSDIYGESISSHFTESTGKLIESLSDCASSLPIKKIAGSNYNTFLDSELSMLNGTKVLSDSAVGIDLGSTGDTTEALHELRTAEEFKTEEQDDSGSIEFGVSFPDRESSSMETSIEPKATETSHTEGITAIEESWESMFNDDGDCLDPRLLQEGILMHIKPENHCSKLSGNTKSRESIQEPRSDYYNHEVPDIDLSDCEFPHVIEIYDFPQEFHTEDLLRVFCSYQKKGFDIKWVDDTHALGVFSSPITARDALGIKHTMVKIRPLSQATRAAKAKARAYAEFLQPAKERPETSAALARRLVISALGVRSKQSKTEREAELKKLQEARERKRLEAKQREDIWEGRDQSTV

[6] = target: proteins of U3A human fibrosarcoma cells (4462 proteins detected) (Homo sapiens, UniProt P61313); conditions: protein RPL15; U3A cells
[7] = target: proteins of U3A human fibrosarcoma cells (4462 proteins detected) (Homo sapiens, UniProt Q9Y3T9); conditions: protein NOC2L; soluble abundance after heat, U3A cells
[8] = target: proteins of U3A human fibrosarcoma cells (4462 proteins detected) (Homo sapiens, UniProt O95059); conditions: protein RPP14; soluble abundance after heat, U3A cells
[9] = target: proteins of U3A human fibrosarcoma cells (4462 proteins detected) (Homo sapiens, UniProt Q7L5Y9); conditions: protein MAEA; U3A cells
proteins of U3A human fibrosarcoma cells (4462 proteins detected) (Homo sapiens, UniProt Q7L5Y9), sequence (Q7L5Y9 whole entry): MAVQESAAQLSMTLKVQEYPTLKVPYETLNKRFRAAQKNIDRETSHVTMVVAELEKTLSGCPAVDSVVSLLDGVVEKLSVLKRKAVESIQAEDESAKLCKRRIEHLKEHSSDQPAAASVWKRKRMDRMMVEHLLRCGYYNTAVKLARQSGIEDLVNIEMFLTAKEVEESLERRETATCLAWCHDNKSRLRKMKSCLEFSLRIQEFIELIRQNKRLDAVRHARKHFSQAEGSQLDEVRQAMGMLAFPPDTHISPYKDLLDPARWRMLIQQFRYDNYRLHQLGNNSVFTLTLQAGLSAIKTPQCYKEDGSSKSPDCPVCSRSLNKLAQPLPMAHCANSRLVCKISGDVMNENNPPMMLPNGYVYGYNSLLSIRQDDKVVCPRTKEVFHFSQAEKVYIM

[10] = target: proteins of U3A human fibrosarcoma cells (4462 proteins detected) (Homo sapiens, UniProt P51659); conditions: protein HSD17B4; U3A cells
proteins of U3A human fibrosarcoma cells (4462 proteins detected) (Homo sapiens, UniProt P51659), sequence (P51659 whole entry): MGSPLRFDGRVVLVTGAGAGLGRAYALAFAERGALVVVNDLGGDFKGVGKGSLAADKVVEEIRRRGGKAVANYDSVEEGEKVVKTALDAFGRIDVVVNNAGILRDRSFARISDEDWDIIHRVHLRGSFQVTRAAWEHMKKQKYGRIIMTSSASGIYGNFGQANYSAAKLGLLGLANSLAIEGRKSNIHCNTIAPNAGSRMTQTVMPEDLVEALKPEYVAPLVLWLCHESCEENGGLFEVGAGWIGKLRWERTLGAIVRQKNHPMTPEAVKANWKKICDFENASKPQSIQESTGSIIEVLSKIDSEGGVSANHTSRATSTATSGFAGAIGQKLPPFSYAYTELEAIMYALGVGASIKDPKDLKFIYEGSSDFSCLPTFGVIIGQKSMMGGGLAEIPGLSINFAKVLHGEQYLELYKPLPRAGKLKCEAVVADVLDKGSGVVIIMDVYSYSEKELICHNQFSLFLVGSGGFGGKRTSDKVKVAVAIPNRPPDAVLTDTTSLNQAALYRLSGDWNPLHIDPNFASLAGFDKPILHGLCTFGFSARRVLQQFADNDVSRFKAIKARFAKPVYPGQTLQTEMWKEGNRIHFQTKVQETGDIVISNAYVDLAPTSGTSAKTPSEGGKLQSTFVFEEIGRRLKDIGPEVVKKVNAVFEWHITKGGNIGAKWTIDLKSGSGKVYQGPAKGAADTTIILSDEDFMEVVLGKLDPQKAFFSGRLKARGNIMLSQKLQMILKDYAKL

[11] = target: proteins of U3A human fibrosarcoma cells (4462 proteins detected) (Homo sapiens, UniProt P51648); conditions: protein ALDH3A2; U3A cells
[12] = target: proteins of U3A human fibrosarcoma cells (4462 proteins detected) (Homo sapiens, UniProt Q93008); conditions: protein USP9X; soluble abundance after heat, U3A cells
[13] = target: proteins of U3A human fibrosarcoma cells (4462 proteins detected) (Homo sapiens, UniProt Q9Y3C8); conditions: protein UFC1; U3A cells
proteins of U3A human fibrosarcoma cells (4462 proteins detected) (Homo sapiens, UniProt Q9Y3C8), sequence (Q9Y3C8 whole entry): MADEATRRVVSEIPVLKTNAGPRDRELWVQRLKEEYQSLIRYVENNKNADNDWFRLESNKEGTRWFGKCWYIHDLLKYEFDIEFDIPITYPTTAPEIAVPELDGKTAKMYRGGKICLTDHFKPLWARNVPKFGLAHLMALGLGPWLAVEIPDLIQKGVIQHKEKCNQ

[14] = target: proteins of U3A human fibrosarcoma cells (4462 proteins detected) (Homo sapiens, UniProt Q9UHA3); conditions: protein RSL24D1; U3A cells
[15] = target: proteins of U3A human fibrosarcoma cells (4462 proteins detected) (Homo sapiens, UniProt Q9UK41); conditions: protein VPS28; U3A cells
proteins of U3A human fibrosarcoma cells (4462 proteins detected) (Homo sapiens, UniProt Q9UK41), sequence (Q9UK41 whole entry): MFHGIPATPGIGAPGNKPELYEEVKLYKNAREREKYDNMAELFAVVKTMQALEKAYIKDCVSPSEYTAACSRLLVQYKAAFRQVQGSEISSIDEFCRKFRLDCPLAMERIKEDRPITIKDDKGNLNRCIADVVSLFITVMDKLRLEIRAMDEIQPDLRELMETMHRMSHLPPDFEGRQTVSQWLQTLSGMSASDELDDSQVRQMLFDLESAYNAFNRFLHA

[16] = target: proteins of U3A human fibrosarcoma cells (4462 proteins detected) (Homo sapiens, UniProt Q9HCD5); conditions: protein NCOA5; U3A cells
[17] = target: proteins of U3A human fibrosarcoma cells (4462 proteins detected) (Homo sapiens, UniProt Q8N9T8); conditions: protein KRI1; soluble abundance after heat, U3A cells
[18] = target: proteins of U3A human fibrosarcoma cells (4462 proteins detected) (Homo sapiens, UniProt Q9NXR1); conditions: protein NDE1, U3A cells
proteins of U3A human fibrosarcoma cells (4462 proteins detected) (Homo sapiens, UniProt Q9NXR1), sequence (Q9NXR1 whole entry): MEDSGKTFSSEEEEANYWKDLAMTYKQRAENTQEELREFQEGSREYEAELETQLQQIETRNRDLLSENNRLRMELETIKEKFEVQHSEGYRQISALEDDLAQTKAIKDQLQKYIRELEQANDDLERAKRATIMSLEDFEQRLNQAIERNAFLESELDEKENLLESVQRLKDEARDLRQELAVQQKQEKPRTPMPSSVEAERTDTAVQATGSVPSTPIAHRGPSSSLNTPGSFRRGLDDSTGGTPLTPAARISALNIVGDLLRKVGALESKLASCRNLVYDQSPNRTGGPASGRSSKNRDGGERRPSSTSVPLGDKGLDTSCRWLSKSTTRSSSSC

[19] = target: proteins of U3A human fibrosarcoma cells (4462 proteins detected) (Homo sapiens, UniProt Q8N4Q1); conditions: protein CHCHD4; soluble abundance after heat, U3A cells
[20] = target: proteins of U3A human fibrosarcoma cells (4462 proteins detected) (Homo sapiens, UniProt Q9UIC8); conditions: protein LCMT1, U3A cells
[21] = target: proteins of U3A human fibrosarcoma cells (4462 proteins detected) (Homo sapiens, UniProt Q8NCA5); conditions: protein FAM98A; U3A cells
proteins of U3A human fibrosarcoma cells (4462 proteins detected) (Homo sapiens, UniProt Q8NCA5), sequence (Q8NCA5 whole entry): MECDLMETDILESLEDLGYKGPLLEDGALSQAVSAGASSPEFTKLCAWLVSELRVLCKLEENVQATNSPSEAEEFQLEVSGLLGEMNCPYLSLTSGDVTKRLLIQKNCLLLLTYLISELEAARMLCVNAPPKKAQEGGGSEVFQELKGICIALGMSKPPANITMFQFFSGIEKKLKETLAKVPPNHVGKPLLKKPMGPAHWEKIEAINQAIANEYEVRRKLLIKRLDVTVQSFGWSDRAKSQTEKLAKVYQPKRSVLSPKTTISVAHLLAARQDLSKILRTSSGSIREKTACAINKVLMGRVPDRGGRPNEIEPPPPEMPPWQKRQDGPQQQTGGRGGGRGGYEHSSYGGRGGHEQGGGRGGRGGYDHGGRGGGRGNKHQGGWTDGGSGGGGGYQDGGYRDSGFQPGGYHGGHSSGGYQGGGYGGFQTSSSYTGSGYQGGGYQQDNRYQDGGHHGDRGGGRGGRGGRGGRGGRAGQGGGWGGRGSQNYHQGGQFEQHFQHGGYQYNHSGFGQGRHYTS

[22] = target: proteins of U3A human fibrosarcoma cells (4462 proteins detected) (Homo sapiens, UniProt P05556); conditions: protein ITGB1; U3A cells
[23] = target: proteins of U3A human fibrosarcoma cells (4462 proteins detected) (Homo sapiens, UniProt P23919); conditions: protein DTYMK; U3A cells
proteins of U3A human fibrosarcoma cells (4462 proteins detected) (Homo sapiens, UniProt P23919), sequence (P23919 whole entry): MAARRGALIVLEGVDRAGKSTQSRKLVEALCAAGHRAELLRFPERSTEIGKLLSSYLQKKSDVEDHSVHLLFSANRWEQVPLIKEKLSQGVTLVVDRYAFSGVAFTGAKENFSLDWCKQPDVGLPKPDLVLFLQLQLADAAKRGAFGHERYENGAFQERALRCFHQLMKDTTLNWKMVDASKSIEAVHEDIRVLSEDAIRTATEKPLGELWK

[24] = target: proteins of U3A human fibrosarcoma cells (4462 proteins detected) (Homo sapiens, UniProt Q8NHQ9); conditions: protein DDX55; U3A cells
[25] = target: proteins of U3A human fibrosarcoma cells (4462 proteins detected) (Homo sapiens, UniProt O00330); conditions: protein PDHX; U3A cells
proteins of U3A human fibrosarcoma cells (4462 proteins detected) (Homo sapiens, UniProt O00330), sequence (O00330 54-501): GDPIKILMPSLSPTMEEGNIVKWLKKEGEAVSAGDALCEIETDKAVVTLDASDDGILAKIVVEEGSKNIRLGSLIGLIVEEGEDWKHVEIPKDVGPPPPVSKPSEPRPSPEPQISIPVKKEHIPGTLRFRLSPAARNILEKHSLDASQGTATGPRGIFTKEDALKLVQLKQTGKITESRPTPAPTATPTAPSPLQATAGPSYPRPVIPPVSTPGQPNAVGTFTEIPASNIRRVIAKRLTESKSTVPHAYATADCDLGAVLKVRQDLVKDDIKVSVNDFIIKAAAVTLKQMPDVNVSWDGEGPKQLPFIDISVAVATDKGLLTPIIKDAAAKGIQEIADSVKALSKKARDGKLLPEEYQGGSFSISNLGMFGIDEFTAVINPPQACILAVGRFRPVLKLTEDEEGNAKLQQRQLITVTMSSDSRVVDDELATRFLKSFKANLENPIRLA

[26] = target: proteins of U3A human fibrosarcoma cells (4462 proteins detected) (Homo sapiens, UniProt Q6N063); conditions: protein OGFOD2; U3A cells
proteins of U3A human fibrosarcoma cells (4462 proteins detected) (Homo sapiens, UniProt Q6N063), sequence (Q6N063 whole entry): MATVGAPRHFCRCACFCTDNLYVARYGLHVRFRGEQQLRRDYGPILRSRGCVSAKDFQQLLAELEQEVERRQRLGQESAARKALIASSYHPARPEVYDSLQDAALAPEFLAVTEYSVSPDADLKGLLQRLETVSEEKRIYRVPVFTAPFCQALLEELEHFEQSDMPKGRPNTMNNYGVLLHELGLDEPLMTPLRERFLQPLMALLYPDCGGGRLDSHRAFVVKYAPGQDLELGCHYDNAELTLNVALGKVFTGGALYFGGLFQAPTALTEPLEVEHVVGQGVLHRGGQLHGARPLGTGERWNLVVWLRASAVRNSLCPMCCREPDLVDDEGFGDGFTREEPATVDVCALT

[27] = target: proteins of U3A human fibrosarcoma cells (4462 proteins detected) (Homo sapiens, UniProt Q9NRY5); conditions: protein FAM114A2; U3A cells
[28] = target: proteins of U3A human fibrosarcoma cells (4462 proteins detected) (Homo sapiens, UniProt Q9H871); conditions: protein RMND5A; U3A cells
[29] = target: proteins of U3A human fibrosarcoma cells (4462 proteins detected) (Homo sapiens, UniProt P31949); conditions: protein S100A11, U3A cells
[30] = target: proteins of U3A human fibrosarcoma cells (4462 proteins detected) (Homo sapiens, UniProt P49368); conditions: protein CCT3; U3A cells

proteins of U3A human fibrosarcoma cells (4462 proteins detected) (Homo sapiens, UniProt Q9Y2P8), sequence (Q9Y2P8 whole entry): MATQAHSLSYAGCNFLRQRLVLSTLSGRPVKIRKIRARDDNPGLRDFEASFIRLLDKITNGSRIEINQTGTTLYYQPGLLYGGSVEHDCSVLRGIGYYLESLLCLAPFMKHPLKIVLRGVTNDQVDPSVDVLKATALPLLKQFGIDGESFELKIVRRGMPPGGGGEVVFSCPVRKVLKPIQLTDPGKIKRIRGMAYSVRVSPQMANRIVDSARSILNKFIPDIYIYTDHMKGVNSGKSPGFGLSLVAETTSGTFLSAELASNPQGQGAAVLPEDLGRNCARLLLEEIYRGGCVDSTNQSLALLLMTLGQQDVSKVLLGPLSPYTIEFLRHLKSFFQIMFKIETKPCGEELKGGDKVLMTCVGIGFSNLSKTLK
proteins of U3A human fibrosarcoma cells (4462 proteins detected) (Homo sapiens, UniProt Q9H0A8), sequence (Q9H0A8 whole entry): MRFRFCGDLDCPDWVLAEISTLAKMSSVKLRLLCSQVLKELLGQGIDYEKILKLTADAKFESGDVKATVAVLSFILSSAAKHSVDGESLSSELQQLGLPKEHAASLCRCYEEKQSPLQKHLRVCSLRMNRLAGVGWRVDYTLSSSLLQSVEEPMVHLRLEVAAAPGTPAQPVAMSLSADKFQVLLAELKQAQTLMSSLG

## CCc1nc(N)nc(N)c1-c1ccc(Cl)cc1 [pyrimethamine]
[1]
  Log2 (PYR/DMSO): 0.21
[2]
  Log2 (PYR/DMSO): 0.21
[3]
  Log2 (PYR/DMSO): -0.04
[4]
  Log2 (PYR/DMSO): 0.18
[5]
  Log2 (PYR/DMSO), R3HCC1L: -0.20
[6]
  Log2 (PYR/DMSO): 0.20
[7]
  Log2 (PYR/DMSO): 0.14
[8]
  Log2 (PYR/DMSO): 0.14
[9]
  Log2 (PYR/DMSO): 0.16
[10]
  Log2 (PYR/DMSO): 0.17
[11]
  Log2 (PYR/DMSO): 0.16
[12]
  Log2 (PYR/DMSO): 0.14
[13]
  Log2 (PYR/DMSO): 0.16
[14]
  Log2 (PYR/DMSO): 0.17
[15]
  Log2 (PYR/DMSO): 0.21
[16]
  Log2 (PYR/DMSO): 0.17
[17]
  Log2 (PYR/DMSO): 0.14
[18]
  Log2 (PYR/DMSO): -0.04
[19]
  Log2 (PYR/DMSO): 0.14
[20]
  Log2 (PYR/DMSO): -0.04
[21]
  Log2 (PYR/DMSO): 0.24
[22]
  Log2 (PYR/DMSO): 0.16
[23]
  Log2 (PYR/DMSO): 0.20
[24]
  Log2 (PYR/DMSO): 0.23
[25]
  Log2 (PYR/DMSO): 0.19
[26]
  Log2 (PYR/DMSO): 0.16
[27]
  Log2 (PYR/DMSO): 0.17
[28]
  Log2 (PYR/DMSO): 0.21
[29]
  Log2 (PYR/DMSO): -0.04
[30]
  Log2 (PYR/DMSO): 0.17
